Experimental findings from patent US20250115598A1 (Anaxis Pharma Pty Ltd, priority 2021, published 2025) are described below.

In one test the target is human RIPK1 (Homo sapiens (Human), UniProt Q13546). Briefly: KINOMEscan binding assay, human RIPK1. The settings on record: Table 21. The procedure: (§1) Binding affinity of the test compounds for human MLKL (full length), mouse MLKL (full length), human RIPK1 and human RIPK3 was determined using the KINOMEscan™ technology developed by DiscoverX (USA; http://www.discoverx.com). The assay was conducted according to manufacturer instructions.
human RIPK1, sequence (Q13546 whole entry): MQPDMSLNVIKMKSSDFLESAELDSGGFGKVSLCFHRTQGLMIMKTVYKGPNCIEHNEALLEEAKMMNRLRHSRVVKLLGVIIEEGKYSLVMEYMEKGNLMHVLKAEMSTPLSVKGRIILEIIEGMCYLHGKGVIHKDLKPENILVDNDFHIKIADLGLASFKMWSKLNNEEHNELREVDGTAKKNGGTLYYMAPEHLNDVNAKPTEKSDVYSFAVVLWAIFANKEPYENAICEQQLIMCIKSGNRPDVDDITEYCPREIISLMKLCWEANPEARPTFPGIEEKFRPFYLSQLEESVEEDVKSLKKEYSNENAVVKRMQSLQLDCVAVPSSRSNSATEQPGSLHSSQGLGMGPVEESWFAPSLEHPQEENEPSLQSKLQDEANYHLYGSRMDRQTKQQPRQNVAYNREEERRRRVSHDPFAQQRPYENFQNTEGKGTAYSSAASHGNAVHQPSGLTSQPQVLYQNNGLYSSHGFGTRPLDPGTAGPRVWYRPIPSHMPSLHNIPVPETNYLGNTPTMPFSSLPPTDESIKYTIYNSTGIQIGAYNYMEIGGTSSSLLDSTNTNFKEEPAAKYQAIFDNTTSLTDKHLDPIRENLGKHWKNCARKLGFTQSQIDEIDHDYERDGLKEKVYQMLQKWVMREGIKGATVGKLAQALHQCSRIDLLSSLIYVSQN
(§2) Kinase assays. For most assays, kinase-tagged T7 phage strains were grown in parallel in 24-well blocks in an E. coli host derived from the BL21 strain. E. coli were grown to log-phase and infected with T7 phage from a frozen stock (multiplicity of infection=0.4) and incubated with shaking at 32° C. until lysis (90-150 minutes). The lysates were centrifuged (6,000×g) and filtered (0.2 μm) to remove cell debris. The remaining kinases were produced in HEK-293 cells and subsequently tagged with DNA for qPCR detection. […] The liganded beads were blocked with excess biotin and washed with blocking buffer (SeaBlock (Pierce), 1% BSA, 0.05% Tween 20, 1 mM DTT) to remove unbound ligand and to reduce non-specific phage binding. […] All reactions were performed in polypropylene 384-well plates in a final volume of 20 μL. […] The kinase concentration in the eluates was measured by qPCR.
(§3) An 11-point 3-fold serial dilution of each test compound was prepared in 100% DMSO at 100× final test concentration and subsequently diluted to 1× in the assay (final DMSO concentration=1%). Most Kos were determined using a compound top concentration=30,000 nM.
(§4) KD for each test compound was calculated with a standard dose-response curve using the Hill equation (equation (1)): […]
(§5) The Hill Slope was set to −1.
(§6) Curves were fitted using a non-linear least square fit with the Levenberg-Marquardt algorithm.

The target in another test is human RIPK3 (Homo sapiens (Human), UniProt Q9Y572). Briefly: KINOMEscan binding assay, human RIPK3. The settings on record: Table 21. The procedure: as §1, §2, §3, §4, §5, §6
human RIPK3, sequence (Q9Y572 whole entry): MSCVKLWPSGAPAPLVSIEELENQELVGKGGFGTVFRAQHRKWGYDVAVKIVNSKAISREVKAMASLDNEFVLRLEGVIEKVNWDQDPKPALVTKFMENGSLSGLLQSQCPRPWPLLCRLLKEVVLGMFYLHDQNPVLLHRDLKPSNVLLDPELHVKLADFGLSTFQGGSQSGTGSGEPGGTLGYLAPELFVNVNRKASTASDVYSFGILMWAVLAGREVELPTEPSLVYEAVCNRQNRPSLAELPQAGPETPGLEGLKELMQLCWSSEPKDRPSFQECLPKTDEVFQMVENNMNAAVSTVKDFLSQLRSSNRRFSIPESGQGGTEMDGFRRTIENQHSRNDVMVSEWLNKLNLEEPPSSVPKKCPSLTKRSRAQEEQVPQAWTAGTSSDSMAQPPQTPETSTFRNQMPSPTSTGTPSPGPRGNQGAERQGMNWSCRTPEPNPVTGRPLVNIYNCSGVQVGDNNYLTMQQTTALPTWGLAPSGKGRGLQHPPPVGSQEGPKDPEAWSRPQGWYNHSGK

Broadly, the Kd is the concentration at which binding is half-saturated. Read a high Kd as weaker binding. `Cc1c(-c2cnc(N)c3c(-c4ccc(NS(=O)(=O)C(F)F)c(O[C@@H](C)c5ccc(F)cc5)c4)nn(C)c23)cnn1C1CCN(C)C(C)(C)C1` (stereo partly drawn) [Compound 157, N-(4-(4-amino-1-methyl-7-(5-methyl-1-(1,2,2-trimethylpiperidin-4-yl)-1H-pyrazol-4-yl)-1H-pyrazolo[4,3-c]pyridin-3-yl)-2-((S)-1-(4-fluorophenyl)ethoxy)phenyl)-1,1-difluoromethanesulfonamide]: the Kd at human RIPK1 and on human RIPK3 was over 10 µM throughout.

Take `C[C@H](Oc1cc(-c2nn(C)c3c(-c4cnn(C5CCC(F)(F)C5)c4)cnc(N)c23)ccc1NS(=O)(=O)C(F)F)c1ccc(F)cc1` (stereo partly drawn) [Compound 120, N-(4-{4-amino-7-[1-(3,3-difluorocyclopentyl)-1H-pyrazol-4-yl]-1-methyl-1H-pyrazolo[4,3-c]pyridin-3-yl}-2-[(1S)-1-(4-fluorophenyl)ethoxy]phenyl)-1,1-difluoromethanesulfonamide]: the Kd on human RIPK1 and at human RIPK3 was over 10 µM each time.

Take `C[C@H](Oc1cc(-c2nn(C)c3c(-c4cnn(C5CCOCC5)c4)cnc(N)c23)ccc1NS(=O)(=O)CC(F)(F)F)c1ccc(F)cc1` [Compound 44, (S)—N-(4-(4-amino-1-methyl-7-(1-(tetrahydro-2H-pyran-4-yl)-1H-pyrazol-4-yl)-1H-pyrazolo[4,3-c]pyridin-3-yl)-2-(1-(4-fluorophenyl)ethoxy)phenyl)-2,2,2-trifluoroethane-1-sulfonamide]: the Kd on human RIPK1 and at human RIPK3 was over 10 µM throughout.

Turning to `C[C@H](Oc1cc(-c2nn(C)c3c(C4=CCOCC4)cnc(N)c23)ccc1NS(=O)(=O)C(F)F)c1ccc(F)cc1` [Compound 43, (S)-N-(4-(4-amino-7-(3,6-dihydro-2H-pyran-4-yl)-1-methyl-1H-pyrazolo[4,3-c]pyridin-3-yl)-2-(1-(4-fluorophenyl)ethoxy)phenyl)-1,1-difluoromethanesulfonamide], the Kd on human RIPK1 and at human RIPK3 was over 10 µM each time.

Consider `CCS(=O)(=O)Nc1ccc(-c2coc3c(-c4cnn(CCO)c4)cnc(N)c23)cc1OCc1ccc(F)cc1` [Compound 4, N-(4-(4-amino-7-(1-(2-hydroxyethyl)-1H-pyrazol-4-yl)furo[3,2-c]pyridin-3-yl)-2-((4-fluorobenzyl)oxy)phe-nyl)ethanesulfonamide], for which the Kd on human RIPK1 and on human RIPK3 was over 10 µM each time.

As for `COC[C@H](Oc1cc(-c2nn(C)c3c(-c4cnn(C5CCOCC5)c4)cnc(N)c23)ccc1NS(=O)(=O)C(F)F)c1ccc(F)cc1` [Compound 111, (R)—N-(4-(4-amino-1-methyl-7-(1-(tetrahydro-2H-pyran-4-yl)-1H-pyrazol-4-yl)-1H-pyrazolo[4,3-c]pyridin-3-yl)-2-(1-(4-fluorophenyl)-2-methoxyethoxy)phenyl)-1,1-difluoromethanesulfonamide], the Kd on human RIPK1 and at human RIPK3 was over 10 µM each time.

Take `C[C@H](Oc1cc(-c2nn(C)c3c(-c4ccc(C(F)(F)F)nc4)cnc(N)c23)ccc1NS(=O)(=O)C(F)F)c1ccc(F)cc1` [Compound 117, (S)-N-(4-(4-amino-1-methyl-7-(6-(trifluoromethyl)pyridin-3-yl)-1H-pyrazolo[4,3-c]pyridin-3-yl)-2-(1-(4-fluorophenyl)ethoxy)phenyl)-1,1-difluoromethanesulfonamide]: the Kd on human RIPK1 and on human RIPK3 was over 10 µM each time.

For the compound `C[C@H](Oc1cc(-c2nn(C)c3c(-c4cc(C#N)n(C)c4)cnc(N)c23)ccc1NS(=O)(=O)C(F)F)c1ccc(F)cc1` [Compound 83, (S)-N-(4-(4-amino-7-(5-cyano-1-methyl-1H-pyrrol-3-yl)-1-methyl-1H-pyrazolo[4,3-c]pyridin-3-yl)-2-(1-(4-fluorophenyl)ethoxy)phenyl)-1,1-difluoromethanesulfonamide], the Kd at human RIPK1 and on human RIPK3 was over 10 µM throughout.

Turning to `COC[C@@H](Oc1cc(-c2nn(C)c3c(-c4cnn(C5CCOCC5)c4)cnc(N)c23)ccc1NS(=O)(=O)C(F)F)c1ccc(F)cc1` [Compound 112, (S)—N-(4-(4-amino-1-methyl-7-(1-(tetrahydro-2H-pyran-4-yl)-1H-pyrazol-4-yl)-1H-pyrazolo[4,3-c]pyridin-3-yl)-2-(1-(4-fluorophenyl)-2-methoxyethoxy)phenyl)-1,1-difluoromethanesulfonamide], the Kd on human RIPK1 and on human RIPK3 was over 10 µM in each case.

Take `C[C@H](Oc1cc(-c2nn(C)c3c(-c4ccc(N5CCN(C)CC5)nc4)cnc(N)c23)ccc1NS(=O)(=O)C(F)F)c1ccc(F)cc1` [Compound 107, (S)-N-(4-(4-amino-1-methyl-7-(6-(4-methylpiperazin-1-yl)pyridin-3-yl)-1H-pyrazolo[4,3-c]pyridin-3-yl)-2-(1-(4-fluorophenyl)ethoxy)phenyl)-1,1-difluoromethanesulfonamide]: the Kd at human RIPK1 and on human RIPK3 was over 10 µM throughout.

`C[C@H](Oc1cc(-c2nn(C)c3c(-c4cnn(C5CCOCC5)c4)cnc(N)c23)ccc1NS(C)(=O)=O)c1ccc(F)cc1` [Compound 119, (S)-N-(4-(4-amino-1-methyl-7-(1-(tetrahydro-2H-pyran-4-yl)-1H-pyrazol-4-yl)-1H-pyrazolo[4,3-c]pyridin-3-yl)-2-(1-(4-fluorophenyl)ethoxy)phe-nyl)methanesulfonamide]: the Kd at human RIPK1 and at human RIPK3 was over 10 µM each time.

Consider `C[C@H](Oc1cc(-c2nn(C)c3c(-c4cnn(C5CCN(CC(F)(F)F)C(C)(C)C5)c4)cnc(N)c23)ccc1NS(=O)(=O)C(F)F)c1ccc(F)cc1` (stereo partly drawn) [Compound 167, N-(4-(4-amino-7-(1-(2,2-dimethyl-1-(2,2,2-trifluoroethyl)piperidin-4-yl)-1H-pyrazol-4-yl)-1-methyl-1H-pyrazolo[4,3-c]pyridin-3-yl)-2-((S)-1-(4-fluorophenyl)ethoxy)phenyl)-1,1-difluoromethanesulfonamide], for which the Kd on human RIPK1 and at human RIPK3 was over 10 µM throughout.

For the compound `C[C@H](Oc1cc(-c2nn(C)c3c(-c4ccc5c(c4)CC(=O)N5C)cnc(N)c23)ccc1NS(=O)(=O)C(F)F)c1ccc(F)cc1` [Compound 165, (S)-N-(4-(4-amino-1-methyl-7-(1-methyl-2-oxoindolin-5-yl)-1H-pyrazolo[4,3-c]pyridin-3-yl)-2-(1-(4-fluorophenyl)ethoxy)phenyl)-1,1-difluoromethanesulfonamide], the Kd at human RIPK1 and on human RIPK3 was over 10 µM throughout.

`COCC(Oc1cc(-c2nn(C)c3c(-c4cnn(C5CCN(C)CC5)c4)cnc(N)c23)ccc1NS(=O)(=O)C(F)F)c1ccc(F)cc1` (centres unmarked) [Compound 139, N-(4-(4-amino-1-methyl-7-(1-(1-methyl-piperidin-4-yl)-1H-pyrazol-4-yl)-1H-pyrazolo[4,3-c]pyridin-3-yl)-2-(1-(4-fluorophenyl)-2-methoxyethoxy)phe-nyl)-1,1-difluoro-methanesulfonamide]: the Kd at human RIPK1 and at human RIPK3 was over 10 µM throughout.

As for `CC1CN(C)CC(C)C1n1cc(-c2cnc(N)c3c(-c4ccc(NS(=O)(=O)C(F)F)c(O[C@@H](C)c5ccc(F)cc5)c4)nn(C)c23)cn1` (stereo partly drawn) [Compound 172, N-(4-(4-amino-1-methyl-7-[1-(1,3,5-trimethylpiperidin-4-yl)-1H-pyrazol-4-yl]-1H-pyrazolo[4,3-c]pyridin-3-yl}-2-[(1S)-1-(4-fluorophenyl)ethoxy]phenyl)-1,1-difluoromethanesulfonamide], the values for the Kd at human RIPK1 and at human RIPK3 were 0.1 to 10 µM and over 10 µM, respectively.

For `C[C@H](Oc1cc(-c2nn(C)c3c(-c4ccc5c(cnn5C)c4)cnc(N)c23)ccc1NS(=O)(=O)C(F)F)c1ccc(F)cc1` [Compound 166, (S)-N-(4-(4-amino-1-methyl-7-(1-methyl-1H-indazol-5-yl)-1H-pyrazolo[4,3-c]pyridin-3-yl)-2-(1-(4-fluorophenyl)ethoxy)phenyl)-1,1-difluoromethanesulfonamide], the Kd on human RIPK1 and on human RIPK3 was over 10 µM in each case.

Turning to `CC(C)n1nc(-c2ccc(NS(=O)(=O)C(F)F)c(O[C@@H](C)c3ccc(F)cc3)c2)c2c(N)ncc(-c3cnn(C)c3)c21` [Compound 52, (S)-N-(4-(4-amino-1-isopropyl-7-(1-methyl-1H-pyrazol-4-yl)-1H-pyrazolo[4,3-c]pyridin-3-yl)-2-(1-(4-fluorophenyl)ethoxy)phenyl)-1,1-difluoromethane-sulfonamide], the Kd on human RIPK1 and at human RIPK3 was over 10 µM in each case.

On to `C[C@H](Oc1cc(-c2nn(C)c3c(C4CCN(C)CC4)cnc(N)c23)ccc1NS(=O)(=O)C(F)F)c1ccc(F)cc1` [Compound 42, (S)—N-(4-(4-amino-1-methyl-7-(1-methylpiperidin-4-yl)-1H-pyrazolo[4,3-c]pyridin-3-yl)-2-(1-(4-fluorophenyl)ethoxy)phenyl)-1,1-difluoromethanesulfonamide], for which the Kd on human RIPK1 and on human RIPK3 was over 10 µM in each case.

For `Cc1noc(C)c1-c1cnc(N)c2c(-c3ccc(NS(=O)(=O)C(F)F)c(O[C@@H](C)c4ccc(F)cc4)c3)nn(C)c12` [Compound 33, (S)-N-(4-(4-amino-7-(3,5-dimethylisoxazol-4-yl)-1-methyl-1H-pyrazolo[4,3-c]pyridin-3-yl)-2-(1-(4-fluorophenyl)ethoxy)phenyl)-1,1-difluoromethanesulfonamide], the Kd on human RIPK1 and at human RIPK3 was over 10 µM throughout.
